Results as given in patent US20110212100A1, “METHODS FOR MODULATING DEVELOPMENT AND EXPANSION OF IL-17 EXPRESSING CELLS” (priority 2007, published 2011).

Tests used:
[1] = system: amino acid response (AAR) pathway: eIF2α, ATF4; experiment: eIF2α phosphorylation and ATF4 protein levels in T cells (immunoblot); assay type: cell-based, mouse
Protocol: Whole cell lysates were prepared 4 hours-post TCR activation and immunoblotting was performed with the indicated antibodies. ATF4 protein is indicated by arrowhead. NS-non-specific band.
FIG. 12E is an illustration depicting immunoblot analysis of purified CD4^+ CD25^− T cells activated through the TCR for the indicated times without exogenous cytokines in the presence of either 10 nM MAZ1310 or 10 nM HF as indicated. Whole cells lysates were prepared during the timecourse and immunoblotting was performed.
(§1) Western blotting: Whole cell lysates were generated from T cells activated for the indicated times. For STAT3 and Smad2/3 western blots cells were harvested, washed in PBS and lysed in 50 mM Tris, pH 7.4, 0.1% SDS, 1% Triton-X100, 140 mM NaCl, 1 mM EDTA, 1 mM EGTA supplemented with protease inhibitors tablets (Roche-Germany), 1 mM NaF and 1 mM Na3VO4. For eIF2α and ATF4 western blots, cells were harvested as above and lysed in 50 mM Tris, pH 7.4, 2% SDS, 20% glycerol and 2 mM EDTA supplemented with protease and phosphatase inhibitors as above. All lysates were cleared via centrifugation and 15-30 μg of protein was resolved by SDS-PAGE. Protein was transferred to nitrocellulose membranes, blocked and blotted using specific antibodies. Antibodies used for western blot analysis were anti-phospho-Smad2, anti-STAT3 (pY705), anti-STAT3, anti-eIF2α^pS51, anti-eIF2α, anti-GCN2^pT898, anti-GCN2 (all from cell signaling technology, Danvers, Mass.). Anti-ATF4/CREB2 and anti-β-actin were purchased from Santa Cruz biotechnology (Santa Cruz, Calif.). HRP-conjugated secondary antibodies were all purchased from Sigma, with the exception of HRP-conjugated anti-armenian hamster antibody (Jackson Immunoresearch—West Grove, Pa.).
To address directly whether HF activates the AAR pathway, eIF2a phosphorylation and ATF4 protein levels in HF-treated T cells were examined. HF induced detectable eIF2α phosphorylation at 2.5 nM, and this effect plateaued at 5-10 nM HF (FIG. 12D). […] AAR activation was a general consequence of HF treatment: HF induced eIF2α phosphorylation not only in T cells activated in Th17-priming conditions, but also in resting naïve T cells and T cells activated in ThN, Th1, Th2 and iTreg polarizing conditions (FIG. 12F). […] (Rathmell, J. C., Elstrom, R. L., Cinalli, R. M. & Thompson, C. B. Activated Akt promotes increased resting T cell size, CD28-independent T cell growth, and development of autoimmunity and lymphoma. Eur J Immunol 33, 2223-32 (2003)). Thus, the rapid activation of the AAR pathway by HF underlies both its selective inhibition of Th17 differentiation and its effects on fibroblasts. (Pines, M. & Nagler, A. Halofuginone: a novel antifibrotic therapy. Gen Pharmacol 30, 445-50 (1998)).

SV-MES mesangial cells = experiment: Stress response in fibroblasts (eIF2α western blot); assay type: cell-based; conditions: 20 nM HF, 2 hours
Protocol: SV-MES mesangial cells were stimulated for 2 hours with DMSO, 20 nM MAZ1310 or 20 nM HF. Whole cell lysates were analyzed for expression of phosphorylated or total eIF2α or GCN2 by western blotting.
as §1, with “HRP-conjugated secondary antibodies were all purchased from Sigma, with the exception of HRP-conjugated anti-armenian hamster antibody (Jackson Immunoresearch—West Grove, Pa.).” left out

[2] = system: Th17 differentiation of CD4+ CD25− T cells; experiment: Th17 differentiation (IL-17+ IFNγ− cells) of T cells activated with TGFβ plus IL-6; assay type: cell-based; conditions: Mus musculus, T-cell, 96 h; murine CD4+ CD25− T cells, restimulation on day 4-5; ± 0.4 nM; read-out: IC50 of repression of Th17 differentiation (percentage of IL-17+ IFNγ− cells)

O=C(CC1NCCCC1O)Cn1cnc2cc(Br)c(Cl)cc2c1=O (racemic) [HF, 7-bromo-6-chloro-3-[3-(3-hydroxy-2-piperidinyl)-2-oxopropyl]-4(3H)-quinazolinone]
time at which eIF2α phosphorylation reached maximum levels ([1]; 10 nM HF): ≤ 2 h | time until which ATF4 protein continued to accumulate ([1]; 10 nM HF): 4 h | concentration at which eIF2α phosphorylation plateaued ([1]; 4 hours post TCR activation): 5 to 10 nM | concentration giving highest ATF4 expression levels ([1]; 4 hours post TCR activation): 5 to 10 nM | concentration inducing detectable eIF2α phosphorylation ([1]; 4 hours post TCR activation): 2.5 nM | higher concentrations at which ATF4 expression levels were reduced ([1]; 4 hours post TCR activation): 20 to 40 nM | eIF2α phosphorylation in SV-MES mesangial cells, in words (SV-MES mesangial cells): increased eIF2α phosphorylation | IC50 [2]: 3.6 nM
